Literature values, collected in patent US6346530B1, “Process for the preparation of a bioavailable oral dosage form of cefuroxime axetil” (Ranbaxy Laboratories Limited, priority 1999, dated 2002).

Details: background, result in words

Row | Compound | Bioavailability upon oral administration
1 | CO/N=C(\C(=O)N[C@@H]1C(=O)N2C(C(=O)OC(C)OC(C)=O)=C(COC(N)=O)CS[C@H]12)c1ccco1 (some centres unmarked) [amorphous form of cefuroxime axetil, cefuroxime axetil] | high bioavailability
2 | CO/N=C(\C(=O)N[C@@H]1C(=O)N2C(C(=O)OC(C)OC(C)=O)=C(COC(N)=O)CS[C@H]12)c1ccco1 (some centres unmarked) [Crystalline cefuroxime axetil, cefuroxime axetil] | does not exhibit adequate bioavailability
